# Results: patent publication US20240398737A1, “FUNCTIONALIZED LONG-CHAIN HYDROCARBON MONO- AND DI-CARBOXYLIC ACIDS AND DERIVATIVES THEREOF, AND THEIR USE FOR THE PREVENTION OR TREATMENT OF DISEASE” (Espervita Therapeutics, Inc., priority 2021, published 2024)
# Key:
# [1] = system: bone marrow derived macrophages (BMDMs); test: LPS-induced glycolysis in bone marrow derived macrophages (Seahorse); assay type: cell-based, mouse; settings: LPS + Compound I-1 50 μM, 4 hours
# Procedure: (§1) Example 10: Treatment of bone marrow derived macrophages Mϕ (BMDMs) with Compound I-1 suppresses lipopolysaccharide (LPS)-induced glycolysis and inflammation. Macrophage were isolated as follows: femurs and tibia were collected from mice, cleaned of any soft tissues and the ends were cut off from each bone. The tibia and femur were then transferred into 1.5 mL Eppendorf tubes and the marrow was extracted via centrifugation (1900 g×5 min), resuspended in DMEM and strained through a 40 μm strainer into a 50 ml falcon tube. The strainer was rinsed with an additional 40 mL of DMEM, the cell suspension was transferred to a T175 flask, an additional 60 mL of DMEM was added and the cells were cultured at 37° C. for 4 hours. Differentiation was initiated by adding 20 mL of L929 fibroblast conditioned media and 12 mL was plated on 100 mm dishes. The cells were then left for 7 days to differentiate into macrophages. […] Changes in gene expression were calculated using 2-delta cT method. Macrophage glycolytic rates were assessed using a Seahorse Bioanalyzer (XFe96, Agilent Scientific Instruments). […] The following day cells were serum-starved for 2 hours then treated with LPS (100 ng/mL) and Compound I-1 (50 μM) and glycolytic rate was analyzed (Agilent Seahorse XFp Cell Energy Phenotype Test Kit, Cat #103275-100).
# Human ACC1 = Human ACC1 (Homo sapiens (Human), UniProt Q13085); test: ACC1 enzymatic assay (ADP-Glo); assay type: biochemical; set-up: key to Compound IC50 (M) ACC1: *: No detectable inhibition or compound activity; settings: recombinant human ACC1 5 nM; 10 concentrations from 300 μM; Runs 1-3
# Procedure: Human ACC1 (Cat #50202 Lot #120830) and ACC2 (Cat #50201 Lot #160217) were obtained from BPS Biosciences, San Diego, CA 92121. Human ACC1 had C-terminal flag and His-tags with a MW of 270 KDa after purification from Baculovirus infected Sf9 cell expression system and came as a solution in 50 mM Tris-HCl, pH 8.0, 500 mM NaCl, 10% glycerol, 1 mM DTT, 100 μg/ml FLAG peptide with 70% purity. The stock concentration was 0.25 mg/ml corresponding to 0.926 μM. Human ACC2 was also purified from Baculovirus infected Sf9 expression system. […] The stock concentration was 0.1 mg/ml corresponding to 0.36 μM. The assay buffer for measuring the activity of ACC contained: 30 mM HEPES (pH 7.4), 2 mM MgCl2, 0.01% Brij35, 2 mM DTT, 1% DMSO (solvent for compound). For ACC1 and ACC2 assays, the following concentrations of substrate and cofactors were used: 12 mM NaHCO3, 10 μM acetyl CoA, 10 μM ATP, and 2 mM K-citrate. The recombinant human enzyme was used at 5 nM for ACC1 and 1 nM for ACC2. In brief, enzyme alone in the above buffer without substrate was used for background. All test materials were dissolved in 100% DMSO using acoustic technology (Echo550). The prepared solution was preincubated for 15 min followed by the addition of 5 μL/well of ADP standard. ATP was then added to start the reaction. The assay contents were spun and briefly shaken followed by incubation at room temperature for 1 h. At the end of completion of assay, 5 μL of ADP-Glo was added to each well to stop the reaction. The contents were mixed, spun and incubated at room temperature for 40 min followed by the addition of 10 μL/well of ADP detection reagent. The contents were spun, mixed and covered with plastic to measure luminescence. […] The light generated, measured in a luminometer, correlates to the amount of ADP generated in the ACC assay, which is indicative of ACC activity.
# The enzyme concentrations for ACC1 and ACC2 were 5 nM and 1 nM, respectively.
# Data represent nM or μM ADP produced, % Activity (relative to no inhibitor controls), and curve fits were performed by GraphPad Prism software. […]
# [2] = system: bone marrow derived macrophages (BMDMs); test: LPS-induced Il-6 and Il-1b mRNA in BMDMs (RT-qPCR); assay type: cell-based, mouse; settings: LPS 10 ng/mL + Compound I-1 50 μM, 4 hours
# Procedure: as §1
compound,measurement,setting,value
"CC(C)(CCCCc1ccc(CCCCC(C)(C)C(=O)O)cc1)C(=O)O [Compound I-1, 6-[4-(5-carboxy-5-methylhexyl)-phenyl]-2,2-dimethylhexanoic acid]","LPS-induced glycolysis (glycolytic rate, Seahorse)",[1],suppression
same,Compound IC50 (M) ACC1,Human ACC1,*
same,Il-1b mRNA (marker of inflammation),[2],suppression
same,Il-6 mRNA (marker of inflammation),[2],suppression
